Laboratory results published in patent US7795255B2, “Rigidified compounds for modulating heparanase activity” (InSight Biopharmaceuticals Ltd., priority 2005, dated 2010).

Assays:
[1] = biological target: T1, recombinant human pro-heparanase (H60) (Homo sapiens, UniProt Q9Y251); test: Pro-heparanase (H60) activation in a cell-based assay; details: inhibition of pro-heparanase activation in CHO cells; NI = no inhibition
T1 construct: Heparanase maturation involves the removal of the signal peptide, transforming the 65 kDa pre-pro-heparanase into a 60 kDa pro-heparanase; made in house
T1 sequence (Q9Y251 36-543): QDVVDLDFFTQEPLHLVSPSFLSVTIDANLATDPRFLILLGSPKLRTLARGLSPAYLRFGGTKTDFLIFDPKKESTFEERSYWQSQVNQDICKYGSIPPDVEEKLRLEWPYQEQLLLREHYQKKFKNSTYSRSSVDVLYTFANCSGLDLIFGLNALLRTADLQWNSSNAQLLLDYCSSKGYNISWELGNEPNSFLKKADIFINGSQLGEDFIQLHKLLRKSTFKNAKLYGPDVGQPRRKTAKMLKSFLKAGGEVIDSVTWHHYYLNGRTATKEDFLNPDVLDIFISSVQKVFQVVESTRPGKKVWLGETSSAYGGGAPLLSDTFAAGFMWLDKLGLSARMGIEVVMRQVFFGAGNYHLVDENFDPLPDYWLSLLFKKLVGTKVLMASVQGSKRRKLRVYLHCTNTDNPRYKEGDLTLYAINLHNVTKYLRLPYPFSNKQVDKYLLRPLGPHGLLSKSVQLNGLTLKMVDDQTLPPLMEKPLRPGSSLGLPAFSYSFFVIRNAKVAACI
Description: Pro-heparanase (H60) activation in a cell-based assay: Chinese hamster ovary (CHO) cells were grown in complete F12 medium supplemented with 10% fetal calf serum (FCS). […] The plates were incubated for 24 hours in a 37° C. humidified incubator with 5% CO2. […] The plates were further incubated for additional 4 hours. The pro-heparanase was allowed to internalize by the cells and further processed to generate the active 53 kDa heparanase. At the end of the incubation, the cells were lysed by three consecutive cycles of freezing and thawing in a −80° C. freezer and a 37° C. shaker.
The rigidified compounds described herein were tested for inhibition of pro-heparanase activation in the cell-based assay described above.

[2] = biological target: T2, vascular endothelial growth factor (VEGF) (Homo sapiens, UniProt P15692); test: ELISA for determination of binding of VEGF to heparin; details: for IC50: inhibition of VEGF binding to heparin, NI = no inhibition; for inhibition of VEGF binding to heparin: inhibition towards both growth factors
T2 sequence (P15692 27-191 isoform P15692-4): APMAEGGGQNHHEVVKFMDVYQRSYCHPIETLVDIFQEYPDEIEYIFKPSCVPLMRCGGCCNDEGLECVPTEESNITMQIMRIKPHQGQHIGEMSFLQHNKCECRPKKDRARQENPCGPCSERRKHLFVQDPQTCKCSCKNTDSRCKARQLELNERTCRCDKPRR
Description: Enzyme-linked immunosorbent assay (ELISA) for determination of binding of vascular endothelial growth factor (VEGF) to heparin: 96-well microplates were coated for 2 hours. at 23-25° C. with 5 μg/ml heparin-albumin (Rimon Biotech) and blocked with 1% bovine serum albumin (BSA) in phosphate buffer (PBS) with 0.05% Tween and 0.01% thimerosal for 2 hours. VEGF was added to the plates at a concentration of 10 ng/ml and the plates were thereafter incubated for 45 minutes at 23-25° C. The amount of VEGF bound to heparin was detected using anti-VEGF monoclonal antibody (Sigma Cat. No. V4758) at a concentration of 0.26 μg/ml and secondary antibodies Sheep anti-mouse IgG linked to horseradish peroxidase (1:2000) using 3,3′,5,5′-tetramethylbenzidine (TMB, Pierce Cat. No. 34021) as a substrate for peroxidase. The plates were read at 450 nm with a reference wavelength of 630 nm using a VERSAmax plate reader. […] Percent inhibition was calculated as compared with a control pre-incubated with a solution of 1% DMSO and the results are presented in Table 3 below.

β-FGF = β-FGF (Homo sapiens, UniProt P09038); test: ELISA for determination of binding of β-FGF to heparin; details: for IC50: inhibition of β-FGF binding to heparin, NI = no inhibition; for inhibition of β-FGF binding to heparin: inhibition towards both growth factors
Chain of β-FGF (P09038 143-288): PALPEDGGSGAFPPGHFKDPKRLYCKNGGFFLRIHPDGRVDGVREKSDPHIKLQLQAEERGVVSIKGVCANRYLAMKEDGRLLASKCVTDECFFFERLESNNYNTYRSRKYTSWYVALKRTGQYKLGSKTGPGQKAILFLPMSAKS
Description: ELISA for determination of binding of β-FGF to heparin: 96-well microplates were coated for 2 hours at 23-25° C. with 5 μg/ml heparin-albumin (Rimon Biotech) and blocked with 1% BSA in PBS, with 0.05% Tween, and 0.01% thimerosal for 2 hours. β-FGF was added to the plates at a concentration of 10 ng/ml and plates were incubated for 45 minutes at 23-25° C. The amount of β-FGF bound to heparin was detected using anti-FGF monoclonal antibody (Sigma Cat. No. F6162) at a concentration of 2.5 ng/ml and secondary antibodies Sheep anti-mouse IgG linked to horseradish peroxidase (1:3000) TMB (Pierce Cat. No. 34021) was used as a substrate for peroxidase. The plates were read at 450 nm with a reference wavelength of 630 nm using a VERSAmax plate reader.

IC50 [1] [nM]	IC50 [2] [nM]	inhibition of VEGF binding to heparin [2]	IC50 (β-FGF) [nM]	inhibition of β-FGF binding to heparin (β-FGF)	Molecule
780					CC(C)(CC(=O)O)CN1C(=O)c2cc3oc(-c4ccc([N+](=O)[O-])cc4)cc3n2C1=S [Compound 8, 3,3-Dimethyl-4-[2-(4-nitro-phenyl)-6-oxo-4-thioxo-6H-1-oxa-3b,5-diaza-cyclopenta[a]pentalen-5-yl]-butyric acid]
3900	100				4-[2-(4-Nitro-phenyl)-4,6-dioxo-6H-1-oxa-3b,5-diaza-cyclopenta[a]pentalen-5-yl]-butyric acid ethyl ester [Compound 30]
	250	sub-micromolar	90	sub-micromolar	CON(C)C(=O)CCCN1C(=O)c2cc3oc(-c4ccc([N+](=O)[O-])cc4)cc3n2C1=S [Compound 3, N-methoxy-N-methyl-4-[2-(4-nitro-phenyl)-6-oxo-4-thioxo-6H-1-oxa-3b,5-diaza-cyclopenta[a]pentalen-5-yl]-butyramide]
460	2000		1400		CC(C)(CC(=O)NCC(=O)O)CN1C(=O)c2cc3oc(-c4ccc(Cl)cc4)cc3n2C1=S [Compound 18, {4-[2-(4-Chloro-phenyl)-6-oxo-4-thioxo-6H-1-oxa-3b,5-diaza-cyclopenta[a]pentalen-5-yl]-3,3-dimethyl-butyrylamino}-acetic acid]
	22500		11500		CCOC(=O)CCCN1C(=O)c2cc3oc4ccc([N+](=O)[O-])cc4c3n2C1=S [Compound 38, ethyl 4-[2,3-(3-nitro-phenyl)-6-oxo-4-thioxo-6H-1-oxa-3b,5-diaza-cyclopenta[a]pentalen-5-yl]-butyric acid ethyl ester]
1400	550	sub-micromolar	220	sub-micromolar	CCN(CC)C(=O)CC(C)(C)CN1C(=O)c2cc3oc(-c4ccc(Cl)cc4)cc3n2C1=S [Compound 13, 4-[2-(4-Chloro-phenyl)-6-oxo-4-thioxo-6H-1-oxa-3b,5-diaza-cyclopenta[a]pentalen-5-yl]-N,N-diethyl-3,3-dimethyl-butyramide]
1500	170	sub-micromolar	200	sub-micromolar	CCOC(=O)CC(C)(C)CN1C(=O)c2cc3oc(-c4ccc(Cl)cc4)cc3n2C1=S [Compound 10, 4-[2-(4-Chloro-phenyl)-6-oxo-4-thioxo-6H-1-oxa-3b,5-diaza-cyclopenta[a]pentalen-5-yl]-3,3-dimethyl-butyric acid ethyl ester]
25000					CCOC(=O)CCCn1c(=S)sc2c(N)snc21 [Compound 43, ethyl 4-(3-amino-5-thioxo-thiazolo[4,5-c]isothiazol-6-yl)-butyric acid ethyl ester]
760	130		60		CCOC(=O)CCCN1C(=O)c2cc3oc(-c4ccc(Cl)cc4)cc3n2C1=S [Compound 4, ethyl 4-[2-(4-chloro-phenyl)-6-oxo-4-thioxo-6H-1-oxa-3b,5-diaza-cyclopenta[a]pentalen-5-yl]-butyric acid ethyl ester]
	260	sub-micromolar	160	sub-micromolar	CC(C)(CC(=O)On1nnc2ccccc2c1=O)CN1C(=O)c2cc3oc(-c4ccc(Cl)cc4)cc3n2C1=S [Compound 12, 4-[2-(4-Chloro-phenyl)-6-oxo-4-thioxo-6H-1-oxa-3b,5-diaza-cyclopenta[a]pentalen-5-yl]-3,3-dimethyl-butyric acid 4-oxo-4H-benzo[d][1,2,3]triazin-3-yl ester]
7000					CCOC(=O)CCCn1c(=S)sc2c(I)snc21 [Compound 44, ethyl 4-(3-iodo-5-thioxo-thiazolo[4,5-c]isothiazol-6-yl)-butyric acid ethyl ester]
120	260	sub-micromolar	470	sub-micromolar	CN(C)CCNC(=O)CC(C)(C)CN1C(=O)c2cc3oc(-c4ccc(Cl)cc4)cc3n2C1=S [Compound 14, 4-[2-(4-Chloro-phenyl)-6-oxo-4-thioxo-6H-1-oxa-3b,5-diaza-cyclopenta[a]pentalen-5-yl]-N-(2-dimethylamino-ethyl)-3,3-dimethyl-butyramide]
16000					CCOC(=O)CCCN1C(=O)c2cc3oc(Oc4ccc([N+](=O)[O-])cc4)cc3n2C1=S [Compound 33, ethyl 4-[2-(4-nitro-phenoxy)-6-oxo-4-thioxo-6H-1-oxa-3b,5-diaza-cyclopenta[a]pentalen-5-yl]-butyric acid ethyl ester]
	130		140		CCOC(=O)CCCN1C(=O)c2cc3oc(-c4ccc([N+](=O)[O-])cc4)cc3n2C1=S [Compound 1, ethyl 4-[2-(4-nitro-phenyl)-6-oxo-4-thioxo-6H-1-oxa-3b,5-diaza-cyclopenta[a]pentalen-5-yl]-butyric acid ethyl ester]
1500	90	sub-micromolar	150	sub-micromolar	CCN(CC)C(=O)CC1(CN2C(=O)c3cc4oc(-c5ccc(Cl)cc5)cc4n3C2=S)CCCCC1 [Compound 24, 2-{1-[2-(4-Chloro-phenyl)-6-oxo-4-thioxo-6H-1-oxa-3b,5-diaza-cyclopenta[a]pentalen-5-ylmethyl]-cyclohexyl}-N,N-diethyl-acetamide]
420	510	sub-micromolar	500	sub-micromolar	CC(C)(CC(=O)NCC(=O)OC(C)(C)C)CN1C(=O)c2cc3oc(-c4ccc(Cl)cc4)cc3n2C1=S [Compound 19, {4-[2-(4-Chloro-phenyl)-6-oxo-4-thioxo-6H-1-oxa-3b,5-diaza-cyclopenta[a]pentalen-5-yl]-3,3-dimethyl-butyrylamino}-acetic acid tert-butyl ester]
	15000				CCOC(=O)CCCn1c(=S)sc2c(-c3ccc(-c4ccc([N+](=O)[O-])cc4)o3)snc21 [Compound 45, 4-{3-[5-(4-nitro-phenyl)-furan-2-yl]-5-thioxo-thiazolo[4,5-c]isothiazol-6-yl}-butyric acid ethyl ester]
170					CC(C)(CC(=O)NO)CN1C(=O)c2cc3oc(-c4ccc([N+](=O)[O-])cc4)cc3n2C1=S [Compound 9, N-hydroxy-3,3-dimethyl-4-[2-(4-nitro-phenyl)-6-oxo-4-thioxo-6H-1-oxa-3b,5-diaza-cyclopenta[a]pentalen-5-yl]-butyramide]

Molecule	IC50 [1] [nM]	IC50 [2] [nM]	inhibition of VEGF binding to heparin [2]	IC50 (β-FGF) [nM]	inhibition of β-FGF binding to heparin (β-FGF)
CCOP(=O)(CCCN1C(=O)c2cc3oc(-c4ccc(Cl)cc4)cc3n2C1=S)OCC [Compound 27, {3-[2-(4-chloro-phenyl)-6-oxo-4-thioxo-6H-1-oxa-3b,5-diaza-cyclopenta[a]pentalen-5-yl]-propyl}-phosphonic acid diethyl ester]	260	300			
